Measured values from PMC12524942, “Efficient Hydrolysis of Dichlorvos in Water by Stenotrophomonas acidaminiphila G1 and Methyl Parathion Hydrolase” (International Journal of Molecular Sciences, 2025).

Molecular target: T1, MPD (methyl parathion hydrolase) (Stenotrophomonas sp. YC-1, UniProt Q0PWQ4)
T1 construct: full ORF (primers from […] to stop; locus Chr1:1174990-1175985, 996 bp), pET28a EcoRI/HindIII, His tag, E. coli BL21(DE3); 331 residues per monomer
Assay: UPLC of residual DDVP, Michaelis-Menten fit
Assay type: biochemical
Conditions: 37 °C, 1 min; DDVP 0.01 to 0.04 mM; enzyme refolded from urea

T1 sequence (Q0PWQ4 entry or part of it): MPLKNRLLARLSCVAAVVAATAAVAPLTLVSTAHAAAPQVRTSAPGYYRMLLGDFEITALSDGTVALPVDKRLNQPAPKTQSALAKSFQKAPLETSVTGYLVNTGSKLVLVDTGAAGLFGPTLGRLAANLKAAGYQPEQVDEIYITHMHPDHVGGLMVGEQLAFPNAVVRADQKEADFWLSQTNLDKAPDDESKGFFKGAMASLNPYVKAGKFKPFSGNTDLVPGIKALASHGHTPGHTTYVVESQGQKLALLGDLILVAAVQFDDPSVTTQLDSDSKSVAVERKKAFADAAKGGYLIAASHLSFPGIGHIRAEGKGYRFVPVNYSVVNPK

With `COP(=O)(OC)OC=C(Cl)Cl` [DDVP, Dichlorvos] the Km was 99 µM.
